This passage reports EC50 results from patent US7785577B2, “Peptides or peptidic conjugate derivatives of MSH and the use thereof for cosmetically fighting against canities” (Institut Europeen de Biologie Cellulaiare, priority 2004, dated 2010).

Non-standard residues stand in square brackets, D forms with d. Residues, ends and D or L forms follow the SMILES beside them. *: point of attachment. Palmitoyl = CCCCCCCCCCCCCCCC(=O)*; Nle = CCCC[C@H](N)C(=O)O

The test concerns the target T1, melanocortin-1 receptor MClr (Homo sapiens, UniProt Q01726).
T1 construct: The cells used to test MClr were human melanocytes; endogenous in cells; host or cells: human melanocytes
In words: Melanogenesis stimulation test: quantification of second messenger cAMP. In kind it is cell-based. From the text:
Test: Study of the quantification of a second messenger: cAMP
When an agonist binds to this receptor, it leads to activation of a molecule, adenylate cyclase, which produces cAMP. Quantifying cAMP makes it possible to evaluate the affinity of a ligand for its receptor.
Protocol: The cells used to test MClr were human melanocytes.
EC50 is the ligand concentration giving 50% of maximum stimulation.

T1 sequence (Q01726 whole entry): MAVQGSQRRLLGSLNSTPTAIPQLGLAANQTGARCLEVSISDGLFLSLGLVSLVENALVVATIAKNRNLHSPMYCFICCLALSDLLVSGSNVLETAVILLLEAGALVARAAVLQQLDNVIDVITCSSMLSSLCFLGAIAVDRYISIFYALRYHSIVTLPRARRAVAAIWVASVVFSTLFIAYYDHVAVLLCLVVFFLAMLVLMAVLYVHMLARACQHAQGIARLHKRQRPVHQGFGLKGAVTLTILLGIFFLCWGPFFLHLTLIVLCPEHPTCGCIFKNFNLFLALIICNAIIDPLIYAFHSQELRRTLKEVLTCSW

With `CCCC[C@H](NC(C)=O)C(=O)N[C@@H](C)C(=O)N[C@@H](CCCNC(=N)N)C(=O)N[C@H](Cc1ccccc1)C(=O)N[C@@H](CCCNC(=N)N)C(=O)N[C@@H](Cc1c[nH]c2ccccc12)C(N)=O` [Conjugate no. 2, Ac-Nle-Ala-Arg-DPhe-Arg-Trp-NH2] (Ac-[Nle]AR[dF]RW-NH2), the EC50 stood at 0.6 nM. Regarding `CCCCCCCCCCCCCCCC(=O)N[C@@H](CCCC)C(=O)N[C@@H](C)C(=O)N[C@@H](Cc1c[nH]cn1)C(=O)N[C@H](Cc1ccccc1)C(=O)N[C@@H](CCCNC(=N)N)C(=O)N[C@@H](Cc1c[nH]c2ccccc12)C(N)=O` [Conjugate no. 13, Palm-Nle-Ala-His-DPhe-Arg-Trp-NH2] (Palmitoyl-[Nle]AH[dF]RW-NH2), a half-maximal response (EC50) required 1.6 nM.

For orientation: EC50 means the concentration at which the effect is half-maximal. The low end stands for higher potency in that assay, the high end for lower potency in that assay.
